Measurements published in patent US20240010913A1, “RED FLUORESCENT SENSOR COMPOUNDS FOR THE DETECTION OF METAL IONS” (FEMTONICS KFT., priority 2020, published 2024).
Entries after “also recorded” stand apart in the source; their conditions may differ.

How the values were obtained:
[1] = Aqueous solution: fluorescence and colour on addition of aqueous 1 mM ZnCl2; type: physicochemical; conditions: for colour of the aqueous solution / fluorescence of the solution upon irradiation: upon addition of aqueous 1 mM ZnCl2; for fluorescence of the aqueous solution: without Zn
[2] = Solubility of the product (qualitative); type: physicochemical
[3] = Ion screening (fluorescence), Cd2+; type: physicochemical
[4] = Fluorescent spectra in the presence of various Zn ion concentration (Zn-titration); type: physicochemical; conditions: 0.1 M HEPES buffer pH 7.4
Experimental: (§1) Fluorescent spectra were recorded on an FLS920 Fluorescence Spectrometer from Edinburgh Instrument. A quartz cuvette with 3 mL volume and 1 cm length was used. Absorption spectra were recorded on a ThermoFisher NanoDrop 1000 Spectrophotometer. The two-photon measurements were performed on the custom Femtonics Dobos Dual system using a water immersion lens, a Mai Tai High-Power laser operated at 50 mW. For processing the images, ImageJ software was used.
FIG. 1. Fluorescence spectra of compound 28 pH 7.4 (0.1 M) HEPES buffer containing different amounts of Zn^2+. Values are not normalized, spectra were recorded at the maximum excitation wavelength.
FIG. 5. Fluorescence spectra of the compound of 29 in 0.1 M HEPES buffer (pH 7.4) containing different amounts of Zn^2+.
FIG. 7. Fluorescence spectra of the compound of 31 in pH 7.4 (0.1 M) HEPES buffer containing different amounts of Zn^2+.
FIG. 9. Fluorescence spectra of the compound of 30 in pH 7.4 (0.1 M) HEPES buffer containing different amounts of Zn^2+ ion.

[5] = Ion screening (fluorescence), Zn2+; type: physicochemical; conditions: for selectivity towards Zn ion: vs Ca2+, Mg2+, Na+, K+, Fe3+, Cu2+, Sn2+, Cd2+, Pb2+
[6] = UV-VIS absorption spectra; type: physicochemical
Experimental: as §1

[7] = cited from earlier work
[8] = Ion screening (fluorescence), Ca2+; type: physicochemical
[9] = Ion screening (fluorescence), Sn2+; type: physicochemical
[10] = cited from earlier work; remark: listed apart in the source

With COc1cccc2ccc(/C=C3\N=C(Nc4ccccc4)NC3=O)nc12 [compound 32, (Z)-5-((8-methoxyquinolin-2-yl)methylene)-2-(phenylamino)-3,5-dihydro-4H-imidazol-4-onen] the “colour of the aqueous solution” value [1] was “colour changes to green”, the “fluorescence of the solution upon irradiation” value [1] was “emits fluorescence” and the “fluorescence of the aqueous solution” value [1] was “emits no fluorescence”. For the same molecule, the “solubility in DMSO” value [2] was “Soluble”, the solubility in alcohols [2] was “Soluble” and the solubility in water [2] was “moderately soluble”.
With CN(Cc1ccccn1)c1cccc2ccc(/C=C3\N=C(Nc4ccccc4)NC3=O)nc12 [compound 31, (Z)-5-((8-(methyl(pyridin-2-ylmethyl)amino)quinolin-2-yl)methylene)-2-(phenylamino)-3,5-dihydro-4H-imidazol-4-one] the “selectivity against Cd2+” value [3] was “weak”, the “colour of the aqueous solution” value [1] was “colour changes to yellow” and the “fluorescence of the solution upon irradiation” value [1] was “emits fluorescence”. The “fluorescence of the aqueous solution” value [1] was “emits no fluorescence”, the maximum emitted wavelength [4] was “around 545 nm” and the “solubility in DMSO” value [2] was “Soluble”. The solubility in alcohols [2] was “Soluble”, the solubility in water [2] was “moderately soluble” and the Zn/Ca fluorescence ratio [5] was “good”. For the same molecule, the “fluorescence in ion screening” value [5] was “strong green fluorescence”, the “selectivity towards Zn ion” value [5] was “good selectivity” and the “UV spectra extends over” value [6] was “over 500 nm”. For the same molecule, the “UV spectra maximum wavelength” value [6] was “around 481 nm”.
For Oc1cccc2cccnc12 [8-hydroxyquinoline], the specificity / selectivity [7] is listed as “low”.
In the case of O=C(O)CN(CC(=O)O)c1cccc2ccc(/C=C3\N=C(Nc4ccccc4)NC3=O)nc12 [compound 33, (Z)-2,2′-((2-((5-oxo-2-(phenylamino)-1,5-dihydro-4H-imidazol-4-ylidene)methyl)quinolin-8-yl)azanediyl)diacetic acid], the “fluorescence with Ca2+ ion” value [8] was “increased fluorescence intensity”, the “turn on in the presence of Zn2+” value [5] was “does not turn on” and the “turn on by Sn2+” value [9] was “turn on the sensor”.
With O=C1NC(Nc2ccccc2)=N/C1=C\c1ccc2cccc(O)c2n1 [compound 28, (Z)-5-((8-hydroxyquinolin-2-yl)methylene)-2-(phenylamino)-3,5-dihydro-4H-imidazol-4-one] the “colour of the aqueous solution” value [1] was “colour changes to yellow”, the “fluorescence of the solution upon irradiation” value [1] was “emits fluorescence” and the “fluorescence of the aqueous solution” value [1] was “emits no fluorescence”. The maximum emitted wavelength [4] was “around 545 nm”, the “solubility in DMSO” value [2] was “Soluble” and the solubility in alcohols [2] was “Soluble”. The solubility in water [2] was “moderately soluble”, the “UV spectra maximum wavelength” value [6] was “around 472 nm” and the Stokes shift ([6]; between UV maximum and emission maximum) was 73 nm.
For O=C(CNNC(=O)c1ccccc1)Nc1cccc2cccnc12 [QLNPY], the quenching ([7]; by PPi and S^2−) is given as “quenched by PPi” and the specificity / selectivity [7] is given as “not selective for Cd^2+”.
With CN(C)CCN(C)c1cccc2ccc(/C=C3\N=C(Nc4ccccc4)NC3=O)nc12 [compound 30, (Z)-5-((8-((2-(dimethylamino)ethyl)(methyl)amino)quinolin-2-yl)methylene)-2-(phenylamino)-3,5-dihydro-4H-imidazol-4-one] the “colour of the aqueous solution” value [1] was “colour gets brighter”, the “fluorescence of the solution upon irradiation” value [1] was “emits fluorescence” and the “fluorescence of the aqueous solution” value [1] was “emits no fluorescence”. For the same molecule, the maximum emitted wavelength [4] was “around 555 nm”, the “solubility in DMSO” value [2] was “Soluble” and the solubility in alcohols [2] was “Soluble”. For the same molecule, the solubility in water [2] was “moderately soluble”, the “fluorescence in ion screening” value [5] was “strong green fluorescence” and the “fluorescence intensity in ion screening” value [5] was “lower intensity”. The “selectivity towards Zn ion” value [5] was “strong selectivity”, the “UV spectra extends over” value [6] was “over 500 nm” and the “UV spectra maximum wavelength” value [6] was “around 476 nm”.
For O=C1NC(Nc2ccccc2)=N/C1=C\c1ccc2ccc3cccnc3c2n1 [compound 34, (Z)-5-((1,10-phenanthrolin-2-yl)methylene)-2-(phenylamino)-3,5-dihydro-4H-imidazol-4-one], the “solubility in DMSO” value [2] was “soluble”, the “solubility in THF” value [2] was “Moderately soluble” and the “solubility in the mixture of DMSO and water” value [2] was “soluble”.
For CCOC(=O)COc1cc(NS(=O)(=O)c2ccc(C)cc2)c2nc(C)ccc2c1 [Zinquin Ester], the solubility / water-solubility [10] is listed as “weak solubility; also recorded: excitation, poor water-solubility”.
In the case of Cc1cc(/C=N/c2cccc3cccnc23)c(O)c(CO)c1 [HQMP], the solubility / water-solubility [10] is given as “Poor water-solubility”.
With CN(C)c1cccc2ccc(/C=C3\N=C(Nc4ccccc4)NC3=O)nc12 [compound 29, (Z)-5-((8-(dimethylamino)quinolin-2-yl)methylene)-2-(phenylamino)-3,5-dihydro-4H-imidazol-4-one] the “colour of the aqueous solution” value [1] was “colour changes to greenish”, the “fluorescence of the solution upon irradiation” value [1] was “emits fluorescence” and the “fluorescence of the aqueous solution” value [1] was “emits no fluorescence”. For the same molecule, the “solubility in DMSO” value [2] was “Soluble”, the solubility in alcohols [2] was “Soluble” and the solubility in water [2] was “Soluble”. The Zn/Ca fluorescence ratio [5] was “excellent”, the “fluorescence in ion screening” value [5] was “strong green fluorescence” and the “selectivity towards Zn ion” value [5] was “strong selectivity”. For the same molecule, the “UV spectra extends over” value [6] was “over 500 nm”.
In the case of O=C1N=C(Nc2ccccc2)N/C1=C\c1ccc2ccc3ccc(/C=C4\NC(Nc5ccccc5)=NC4=O)nc3c2n1 [compound 35, (5Z,5′Z)-5,5′-((1,10-phenanthroline-2,9-diyl)bis(methanylylidene))bis(2-(phenylamino)-1,5-dihydro-4H-imidazol-4-one)], the “solubility in DMSO” value [2] was “soluble”, the “solubility in THF” value [2] was “Moderately soluble” and the “solubility in the mixture of DMSO and water” value [2] was “soluble”.
For COc1cc(NS(=O)(=O)c2ccc(C)cc2)c2ncccc2c1 [TSQ, 6-methoxy-(8-p-toluenesulfonamido)quinoline], the solubility / water-solubility [10] is listed as “poor water-”.
